From patent US7101664B2, “Bioactive oligopeptides” (Polymun Scientific Immunbiologische Forschung GmbH, priority 1999, dated 2006) come the findings set out here.

Data set [1] relates to Mouse hybridoma CAU 96. The experiment in a line: Batch T-flask culture of hybridoma with oligopeptide supplements (Example 2). It is filed as cell-based. The note with it: for growth stimulating effect on the hybridoma cell line (in words): Tables 3 to 7. An excerpt: Cells: Mouse hybridoma CAU 96 producing monoclonal lgG2a
Starting viable cell density is 310000 (3.1*10^5) cells per ml.

In data set [2] the test system is Mouse hybridoma CAU 96. The experiment in a line: Amino acid analysis of the culture medium during cultivation of hybridoma cells with tetrapeptide.
Description: (§1) Cells: Mouse hybridoma CAU 96 producing monoclonal lgG2a antibody.
(§2) Medium: DMEM/F-12/RPMI 1640 (2:1:1) supplemented with Basal Medium Eagle (BME) amino acids, 2.0 mM glutamine, 15 mM HEPES (N-2-Hydroxyethylpiperazine-N′-2-ethanesulfonic acid), 2.0 g/l sodium bicarbonate and 0.4 mM ferric citrate.
(§3) Culture mode: 25 cm^3 T-flasks (Nunc) culture volume 6.0 ml, placed at 37° C. in an incubator with 5% CO^2; starting viable cell density is 3.1×10^5 cells per ml.
(§4) Preparation of samples of amino acid analysis: Cells are removed by low-speed centrifugation and macromolecular components are removed by ultrafiltration.
Data set [3] deals with Mouse hybridoma CAU 96.
Description: as §1, §2, §3, §4
For data set [4], the system named is Mouse hybridoma CAU 96. The source holds these as a separate data set.
Description: Medium: DMEM/F-12/RPMI 1640 (2:1:1) supplemented with BME amino acids, MEM non essential amino acids, 2.0 mM glutamine, 15 mM HEPES, 2.0 g/L sodium bicarbonate and 0.4 mM ferric citrate.
Culture mode: 25 cm^2 T-flasks (Supplier: Nunc), culture volume 6.0 ml, placed at 37° C. in an incubator with 5% CO2; starting viable cell density is 3.1×10^5 cells per ml.
Setting [5] is: Table 4, Day 6, supplement 0.2% w/v.
Setting [6] is: Table 3, Day 7, supplement 0.2% w/v.
[7] abbreviates: Table 5, Day 6, supplement 0.2% w/v.
The mark [8] stands for this setting: Table 6, Day 6, supplement 0.1% w/v.
Where [9] appears, read: Table 6, Day 6, supplement 0.2% w/v.
Setting [10] is: Table 4, Day 6, supplement 0.1% w/v.
The mark [11] stands for this setting: Table 7, Day 6, supplement 0.1% w/v.
Where [12] appears, read: Table 7, Day 6, supplement 0.2% w/v.
Where [13] appears, read: Table 7, Day 6, supplement 0.05% w/v.
[14] abbreviates: Table 5, Day 6, supplement 0.05% w/v.
Where [15] appears, read: Table 5, Day 6, supplement 0.1% w/v.
The mark [16] stands for this setting: Table 5, Day 6, supplement 0.3% w/v.

Where two headings read alike, the source gives them in different places. Where a SMILES comes first, the peptide text is derived from it. Where no end group is shown, it is not given here. [ ]: non-standard residue; d: D form. βAla = NCCC(=O)O

Take `C[C@H](N)C(=O)O` [Alanine, reference compound]: in the data set on Mouse hybridoma CAU 96 [1], the “Viable cell number % of control” value is reported as 94 % of control and the “growth stimulating effect on the hybridoma cell line (in words)” value (shortened to “growth stimulating effect”) was “insignificant”. Besides, in the data set with Mouse hybridoma CAU 96 [1] (setting [5]), the Monoclonal antibody is 110 mg/L, the Viability turned out to be 60% and the Viable cell number was 1030 cells/μL.

`NCC(=O)O` [Glycine, reference compound]: in the data set on Mouse hybridoma CAU 96 [1], the “Viable cell number % of control” value is given as 102 % of control and the “growth stimulating effect” value is “does not significantly stimulate cell growth”. In the data set on Mouse hybridoma CAU 96 [1] (setting [6]), this molecule came in with a Monoclonal antibody of 160 mg/L, a Viability of 60% and a Viable cell number of 1080 cells/μL.

In the case of `N[C@@H](CO)C(=O)O` [Serine, reference compound], in the data set with Mouse hybridoma CAU 96 [1], the “Viable cell number % of control” value was 104 % of control and the “growth stimulating effect” value is “insignificant”. In the data set on Mouse hybridoma CAU 96 [1] (setting [7]), the Monoclonal antibody is listed as 111 mg/L, the Viability is reported as 63% and the Viable cell number came out at 1190 cells/μL.

In the case of `C[C@H](N)C(=O)N[C@@H](C)C(=O)N[C@@H](C)C(=O)N[C@@H](C)C(=O)O` [Tetraalanine, Ala-Ala-Ala-Ala] (H-AAAA-OH; N-terminus and C-terminus assumed), the Viability turned out to be 66% in the data set with Mouse hybridoma CAU 96 [1] (0.1 % w/v) and 72% in the data set with Mouse hybridoma CAU 96 [1] (0.2 % w/v). Also, in the data set with Mouse hybridoma CAU 96 [2] (Table 2, culture medium with tetraalanine, day 0), the “Amino acid concentration, Day 0” value was determined as 1.84. Moreover, the “Amino acid concentration, Day 4” value in the data set on Mouse hybridoma CAU 96 [2] (Table 2, culture medium with tetraalanine, day 4) was determined as 1.28. Further, in the data set with Mouse hybridoma CAU 96 [2] (Table 2, day 4 minus day 0), the “Amino acid concentration, Difference” value is recorded as −0.56.

For `NCC(=O)NCC(=O)NCC(=O)NCC(=O)O` [Tetraglycine, Gly-Gly-Gly-Gly] (H-GGGG-OH; N-terminus and C-terminus assumed), in the data set with Mouse hybridoma CAU 96 [1], the “Viable cell number % of control” value is 176 % of control. Also, the Viability in the data set with Mouse hybridoma CAU 96 [1] (0.2 % w/v) is reported as 80%; with Mouse hybridoma CAU 96 [4] (0.1 % w/v), 78%; with Mouse hybridoma CAU 96 [4] (0.2 % w/v), 77%; with Mouse hybridoma CAU 96 [4] (0.3 % (w/v)) it was 80%. Moreover, the “Amino acid concentration, Day 0” value in the data set on Mouse hybridoma CAU 96 [3] worked out at 7.14 mM. Also, in the data set with Mouse hybridoma CAU 96 [3], the “Amino acid concentration, Day 4” value is listed as 6.55 mM.

Turning to `C[C@@H](O)[C@H](N)C(=O)O` [Threonine, reference compound], the “Viable cell number % of control” value with Mouse hybridoma CAU 96 [1] was 97 % of control. In the data set on Mouse hybridoma CAU 96 [1] (setting [7]), this molecule returned a Monoclonal antibody of 114 mg/L, a Viability of 59% and a Viable cell number of 1100 cells/μL.

Molecule `NCC(=O)NCC(=O)NCC(=O)O` [Triglycine, Gly-Gly-Gly] (H-Gly-Gly-Gly-OH) yielded a Viability in the data set with Mouse hybridoma CAU 96 [1] (0.1 % w/v) of 78%. For the same molecule, the values for the Monoclonal antibody with Mouse hybridoma CAU 96 [1] (setting [6]), in the data set on Mouse hybridoma CAU 96 [1] (setting [8]) and in the data set on Mouse hybridoma CAU 96 [1] (setting [9]) were 160 mg/L, 98 mg/L and 89 mg/L, respectively. Moreover, the Viable cell number turned out to be 1660 cells/μL in the data set with Mouse hybridoma CAU 96 [1] (setting [6]), 1350 cells/μL with Mouse hybridoma CAU 96 [1] (setting [8]) and 1300 cells/μL in the data set with Mouse hybridoma CAU 96 [1] (setting [9]).

With `NCCC(=O)O` [β-alanine, reference compound], in the data set on Mouse hybridoma CAU 96 [1], the “Viable cell number % of control” value was 106 % of control and the “growth stimulating effect” value was “insignificant”. In the data set with Mouse hybridoma CAU 96 [1] (setting [7]), this molecule had a Monoclonal antibody of 105 mg/L, a Viability of 60% and a Viable cell number of 1210 cells/μL.

With Ala-Ala-Ala [Trialanine], in the data set on Mouse hybridoma CAU 96 [1] (setting [10]), the Monoclonal antibody was found to be 130 mg/L, the Viability is on record as 69% and the Viable cell number was 1390 cells/μL. Besides, in the data set on Mouse hybridoma CAU 96 [1] (setting [5]), the Monoclonal antibody turned out to be 132 mg/L, the Viability amounted to 70% and the Viable cell number worked out at 1420 cells/μL.

As to Diglycine, in the data set with Mouse hybridoma CAU 96 [1], the “Viable cell number % of control” value is listed as 114 % of control. In the data set on Mouse hybridoma CAU 96 [1] (setting [6]), this molecule returned a Monoclonal antibody of 165 mg/L, a Viability of 70% and a Viable cell number of 1210 cells/μL.

In the data set on Mouse hybridoma CAU 96 [1] (setting [8]), Gly-Arg-Gly showed a Monoclonal antibody of 106 mg/L, a Viability of 65% and a Viable cell number of 1360 cells/μL. In the data set with Mouse hybridoma CAU 96 [1] (setting [9]), this molecule yielded a Monoclonal antibody of 121 mg/L, a Viability of 66% and a Viable cell number of 1270 cells/μL.

In the data set with Mouse hybridoma CAU 96 [1] (setting [8]), Gly-Asp-Gly returned a Monoclonal antibody of 98 mg/L, a Viability of 64% and a Viable cell number of 1340 cells/μL. In the data set on Mouse hybridoma CAU 96 [1] (setting [9]), this molecule had a Monoclonal antibody of 92 mg/L, a Viability of 70% and a Viable cell number of 1420 cells/μL.

In the case of Gly-Gly-Glu-Ala (GGEA), in the data set on Mouse hybridoma CAU 96 [1] (setting [11]), the Monoclonal antibody is 100 mg/L, the Viability worked out at 82% and the Viable cell number is 1350 cells/μL. In the data set with Mouse hybridoma CAU 96 [1] (setting [12]), this molecule showed a Monoclonal antibody of 113 mg/L, a Viability of 77% and a Viable cell number of 1280 cells/μL.

With Gly-Gly-Gly-Gly-Gly [Pentaglycine], the “Viable cell number % of control” value with Mouse hybridoma CAU 96 [1] is 190 % of control. For the same molecule, in the data set on Mouse hybridoma CAU 96 [1] (setting [6]), the Monoclonal antibody was 165 mg/L, the Viability is recorded as 82% and the Viable cell number was found to be 2020 cells/μL.

Take Gly-Gly-Gly-Gly-Gly-Gly [Hexaglycine]: the “Viable cell number % of control” value in the data set with Mouse hybridoma CAU 96 [1] was 183 % of control. In addition, in the data set with Mouse hybridoma CAU 96 [1] (setting [6]), the Monoclonal antibody worked out at 160 mg/L, the Viability was determined as 79% and the Viable cell number was 1940 cells/μL.

Regarding Gly-Gly-His-Gly (GGHG), in the data set on Mouse hybridoma CAU 96 [1] (setting [11]), the Monoclonal antibody was determined as 93 mg/L, the Viability is 77% and the Viable cell number worked out at 1360 cells/μL. In the data set on Mouse hybridoma CAU 96 [1] (setting [12]), the Monoclonal antibody came to 84 mg/L, the Viability is recorded as 71% and the Viable cell number amounted to 1180 cells/μL.

As to Gly-Gly-Lys-Ala (GGKA), in the data set on Mouse hybridoma CAU 96 [1] (setting [11]), the Monoclonal antibody was 118 mg/L, the Viability is 79% and the Viable cell number stood at 1310 cells/μL. In the data set on Mouse hybridoma CAU 96 [1] (setting [12]), the Monoclonal antibody turned out to be 134 mg/L, the Viability was found to be 78% and the Viable cell number came to 1290 cells/μL.

Turning to Gly-His-Gly, in the data set with Mouse hybridoma CAU 96 [1] (setting [8]), the Monoclonal antibody turned out to be 121 mg/L, the Viability was determined as 65% and the Viable cell number is 1180 cells/μL. Further, in the data set on Mouse hybridoma CAU 96 [1] (setting [9]), the Monoclonal antibody worked out at 144 mg/L, the Viability was determined as 66% and the Viable cell number worked out at 900 cells/μL.

With Gly-Lys-Gly, in the data set on Mouse hybridoma CAU 96 [1] (setting [8]), the Monoclonal antibody is 128 mg/L, the Viability was found to be 67% and the Viable cell number was found to be 1250 cells/μL. In the data set with Mouse hybridoma CAU 96 [1] (setting [9]), this molecule returned a Monoclonal antibody of 154 mg/L, a Viability of 62% and a Viable cell number of 1100 cells/μL.

As for Gly-βAla-Gly-Gly (G[βAla]GG), in the data set with Mouse hybridoma CAU 96 [1] (setting [13]), the Monoclonal antibody amounted to 121 mg/L, the Viability is 68% and the Viable cell number is given as 1100 cells/μL. For the same molecule, in the data set on Mouse hybridoma CAU 96 [1] (setting [11]), the Monoclonal antibody is recorded as 129 mg/L, the Viability came out at 65% and the Viable cell number stood at 1150 cells/μL. In the data set with Mouse hybridoma CAU 96 [1] (setting [12]), the Monoclonal antibody is reported as 150 mg/L, the Viability is 72% and the Viable cell number worked out at 1270 cells/μL.

As for Ser-Ser-Ser [Triserine], the Monoclonal antibody with Mouse hybridoma CAU 96 [1] (setting [14]) stood at 109 mg/L; in the data set with Mouse hybridoma CAU 96 [1] (setting [15]), 112 mg/L; with Mouse hybridoma CAU 96 [1] (setting [7]), 126 mg/L; in the data set with Mouse hybridoma CAU 96 [1] (setting [16]) it was 142 mg/L. The Viability came out at 61% with Mouse hybridoma CAU 96 [1] (setting [14]), 65% with Mouse hybridoma CAU 96 [1] (setting [15]), 70% in the data set with Mouse hybridoma CAU 96 [1] (setting [7]) and 78% in the data set with Mouse hybridoma CAU 96 [1] (setting [16]). Besides, the Viable cell number in the data set on Mouse hybridoma CAU 96 [1] (setting [14]) was determined as 1200 cells/μL; in the data set on Mouse hybridoma CAU 96 [1] (setting [15]), 1340 cells/μL; with Mouse hybridoma CAU 96 [1] (setting [7]), 1550 cells/μL; in the data set on Mouse hybridoma CAU 96 [1] (setting [16]), 1610 cells/μL.

In the data set on Mouse hybridoma CAU 96 [1] (setting [14]), Thr-Thr-Thr [Trithreonine] showed a Monoclonal antibody of 122 mg/L, a Viability of 67% and a Viable cell number of 1310 cells/μL. Further, in the data set on Mouse hybridoma CAU 96 [1] (setting [15]), the Monoclonal antibody came out at 130 mg/L, the Viability was determined as 70% and the Viable cell number was 1370 cells/μL. In the data set with Mouse hybridoma CAU 96 [1] (setting [7]), this molecule had a Monoclonal antibody of 152 mg/L, a Viability of 73% and a Viable cell number of 1450 cells/μL.
